In PubChem BioAssay (NCI):
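Cells were grown in 96-well plates and exposed to each compound for 48 hours at five concentrations; endpoints were interpolated linearly between bracketing concentrations, or set to the highest concentration if not reached. Here, GI50 denotes the concentration required for 50% inhibition of growth. TGI is the concentration that stops growth completely.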

Key:
Test in all cases: growth of human tumour cells (NCI), 48 h
786-0 renal = tested on: 786-0 renal
A498 renal = tested on: A498 renal
A549 NSCLC = tested on: A549 NSCLC
ACHN renal = tested on: ACHN renal
CAKI-1 renal = tested on: CAKI-1 renal
CCRF-CEM leukemia = tested on: CCRF-CEM leukemia
COLO 205 colon = tested on: COLO 205 colon
DLD-1 colon = tested on: DLD-1 colon
DMS 114 small cell lung = tested on: DMS 114 small cell lung
DMS 273 small cell lung = tested on: DMS 273 small cell lung
EKVX NSCLC = tested on: EKVX NSCLC
HCC-2998 colon = tested on: HCC-2998 colon
HCT-116 colon = tested on: HCT-116 colon
HCT-15 colon = tested on: HCT-15 colon
HL-60(TB) leukemia = tested on: HL-60(TB) leukemia
HOP-18 NSCLC = tested on: HOP-18 NSCLC
HOP-62 NSCLC = tested on: HOP-62 NSCLC
HOP-92 NSCLC = tested on: HOP-92 NSCLC
HT29 colon = tested on: HT29 colon
IGROV1 ovarian = tested on: IGROV1 ovarian
K-562 leukemia = tested on: K-562 leukemia
KM12 colon = tested on: KM12 colon
KM20L2 colon = tested on: KM20L2 colon
LOX IMVI melanoma = tested on: LOX IMVI melanoma
LXFL 529 NSCLC = tested on: LXFL 529 NSCLC
M14 melanoma = tested on: M14 melanoma
M19-MEL melanoma = tested on: M19-MEL melanoma
MALME-3M melanoma = tested on: MALME-3M melanoma
MOLT-4 leukemia = tested on: MOLT-4 leukemia
NCI-H226 lung = tested on: NCI-H226 lung
NCI-H23 lung = tested on: NCI-H23 lung
NCI-H460 lung = tested on: NCI-H460 lung
NCI-H522 lung = tested on: NCI-H522 lung
OVCAR-3 ovarian = tested on: OVCAR-3 ovarian
OVCAR-4 ovarian = tested on: OVCAR-4 ovarian
OVCAR-5 ovarian = tested on: OVCAR-5 ovarian
OVCAR-8 ovarian = tested on: OVCAR-8 ovarian
RPMI-8226 leukemia = tested on: RPMI-8226 leukemia
RXF 393 renal = tested on: RXF 393 renal
RXF-631 renal = tested on: RXF-631 renal
SF-268 CNS = tested on: SF-268 CNS
SF-295 CNS = tested on: SF-295 CNS
SF-539 CNS = tested on: SF-539 CNS
SK-MEL-2 melanoma = tested on: SK-MEL-2 melanoma
SK-MEL-28 melanoma = tested on: SK-MEL-28 melanoma
SK-MEL-5 melanoma = tested on: SK-MEL-5 melanoma
SK-OV-3 ovarian = tested on: SK-OV-3 ovarian
SN12C renal = tested on: SN12C renal
SNB-19 CNS = tested on: SNB-19 CNS
SNB-75 CNS = tested on: SNB-75 CNS
SNB-78 CNS = tested on: SNB-78 CNS
SR leukemia = tested on: SR leukemia
SW-620 colon = tested on: SW-620 colon
TK-10 renal = tested on: TK-10 renal
U251 CNS = tested on: U251 CNS
UACC-257 melanoma = tested on: UACC-257 melanoma
UACC-62 melanoma = tested on: UACC-62 melanoma
UO-31 renal = tested on: UO-31 renal
XF 498 CNS = tested on: XF 498 CNS

In the case of C=CC1=CC(C)C[C@]1(O)C(=O)OC (stereo partly specified), the GI50 (786-0 renal) is reported as > 100 µM, the GI50 (A498 renal) is reported as > 100 µM and the GI50 (A549 NSCLC) is reported as > 100 µM. The GI50 (ACHN renal) was > 100 µM, the GI50 (CAKI-1 renal) was > 100 µM and the GI50 (CCRF-CEM leukemia) was > 100 µM. For the same molecule, the GI50 (COLO 205 colon) was > 100 µM, the GI50 (DLD-1 colon) was > 100 µM and the GI50 (DMS 114 small cell lung) was > 100 µM. The GI50 (DMS 273 small cell lung) was > 100 µM, the GI50 (EKVX NSCLC) was > 100 µM and the GI50 (HCC-2998 colon) was > 100 µM. The GI50 (HCT-116 colon) was > 100 µM, the TGI (HCT-15 colon) was > 100 µM and the GI50 (HL-60(TB) leukemia) was > 100 µM. The TGI (HOP-18 NSCLC) was > 100 µM, the GI50 (HOP-62 NSCLC) was > 100 µM and the GI50 (HOP-92 NSCLC) was > 100 µM. The GI50 (HT29 colon) was > 100 µM, the GI50 (IGROV1 ovarian) was > 100 µM and the GI50 (K-562 leukemia) was > 100 µM. For the same molecule, the GI50 (KM12 colon) was > 100 µM, the TGI (KM20L2 colon) was > 100 µM and the GI50 (LOX IMVI melanoma) was > 100 µM. For the same molecule, the GI50 (LXFL 529 NSCLC) was > 100 µM, the GI50 (M14 melanoma) was > 100 µM and the GI50 (M19-MEL melanoma) was > 100 µM. For the same molecule, the GI50 (MALME-3M melanoma) was > 100 µM, the GI50 (MOLT-4 leukemia) was > 100 µM and the GI50 (NCI-H226 lung) was > 100 µM. For the same molecule, the GI50 (NCI-H23 lung) was > 100 µM, the GI50 (NCI-H460 lung) was > 100 µM and the TGI (NCI-H522 lung) was > 100 µM. For the same molecule, the GI50 (OVCAR-3 ovarian) was > 100 µM, the GI50 (OVCAR-4 ovarian) was > 100 µM and the GI50 (OVCAR-5 ovarian) was > 100 µM. For the same molecule, the GI50 (OVCAR-8 ovarian) was > 100 µM, the TGI (RPMI-8226 leukemia) was < 0.01 µM and the GI50 (RXF 393 renal) was > 100 µM. The GI50 (RXF-631 renal) was > 100 µM, the GI50 (SF-268 CNS) was > 100 µM and the GI50 (SF-295 CNS) was > 100 µM. For the same molecule, the TGI (SF-539 CNS) was > 100 µM, the GI50 (SK-MEL-2 melanoma) was > 100 µM and the GI50 (SK-MEL-28 melanoma) was > 100 µM. The TGI (SK-MEL-5 melanoma) was > 100 µM, the TGI (SK-OV-3 ovarian) was > 100 µM and the GI50 (SN12C renal) was > 100 µM. The GI50 (SNB-19 CNS) was > 100 µM, the GI50 (SNB-75 CNS) was > 100 µM and the TGI (SNB-78 CNS) was > 100 µM. For the same molecule, the TGI (SR leukemia) was > 100 µM, the GI50 (SW-620 colon) was < 10 nM and the GI50 (TK-10 renal) was > 100 µM. The GI50 (U251 CNS) was > 100 µM, the GI50 (UACC-257 melanoma) was > 100 µM and the GI50 (UACC-62 melanoma) was > 100 µM. The GI50 (UO-31 renal) was > 100 µM and the GI50 (XF 498 CNS) was > 100 µM.

In the case of CCCCCCCCCC(=O)Oc1cccc2onc(C)c12, the TGI (786-0 renal) is reported as > 100 µM, the TGI (A549 NSCLC) is reported as > 100 µM and the TGI (ACHN renal) is reported as > 100 µM. For the same molecule, the TGI (CAKI-1 renal) was > 100 µM, the TGI (CCRF-CEM leukemia) was > 100 µM and the TGI (COLO 205 colon) was > 100 µM. For the same molecule, the TGI (DLD-1 colon) was > 100 µM, the TGI (DMS 114 small cell lung) was > 100 µM and the TGI (DMS 273 small cell lung) was > 100 µM. The TGI (EKVX NSCLC) was > 100 µM, the TGI (HCC-2998 colon) was > 100 µM and the TGI (HCT-116 colon) was > 100 µM. For the same molecule, the TGI (HCT-15 colon) was > 100 µM, the TGI (HL-60(TB) leukemia) was 56.4 µM and the TGI (HOP-18 NSCLC) was > 100 µM. For the same molecule, the TGI (HOP-62 NSCLC) was > 100 µM, the TGI (HOP-92 NSCLC) was > 100 µM and the TGI (HT29 colon) was > 100 µM. For the same molecule, the TGI (IGROV1 ovarian) was > 100 µM, the TGI (K-562 leukemia) was > 100 µM and the TGI (KM12 colon) was > 100 µM. The TGI (KM20L2 colon) was > 100 µM, the TGI (LOX IMVI melanoma) was > 100 µM and the TGI (LXFL 529 NSCLC) was > 100 µM. The TGI (M14 melanoma) was > 100 µM, the TGI (M19-MEL melanoma) was > 100 µM and the TGI (MALME-3M melanoma) was > 100 µM. For the same molecule, the TGI (MOLT-4 leukemia) was > 100 µM, the TGI (NCI-H226 lung) was > 100 µM and the TGI (NCI-H23 lung) was > 100 µM. For the same molecule, the TGI (NCI-H460 lung) was > 100 µM, the TGI (NCI-H522 lung) was > 100 µM and the TGI (OVCAR-3 ovarian) was > 100 µM. The TGI (OVCAR-4 ovarian) was > 100 µM, the TGI (OVCAR-5 ovarian) was > 100 µM and the TGI (OVCAR-8 ovarian) was > 100 µM. The TGI (RPMI-8226 leukemia) was > 100 µM, the TGI (RXF 393 renal) was > 100 µM and the TGI (RXF-631 renal) was > 100 µM. The TGI (SF-268 CNS) was > 100 µM, the TGI (SF-295 CNS) was > 100 µM and the TGI (SF-539 CNS) was > 100 µM. The TGI (SK-MEL-2 melanoma) was > 100 µM, the TGI (SK-MEL-28 melanoma) was > 100 µM and the TGI (SK-MEL-5 melanoma) was > 100 µM. For the same molecule, the TGI (SK-OV-3 ovarian) was > 100 µM, the TGI (SN12C renal) was > 100 µM and the TGI (SNB-19 CNS) was > 100 µM. The TGI (SNB-75 CNS) was > 100 µM, the TGI (SNB-78 CNS) was > 100 µM and the TGI (SR leukemia) was > 100 µM. The TGI (SW-620 colon) was > 100 µM, the TGI (TK-10 renal) was > 100 µM and the TGI (U251 CNS) was > 100 µM. The TGI (UACC-257 melanoma) was > 100 µM, the TGI (UACC-62 melanoma) was > 100 µM and the TGI (UO-31 renal) was > 100 µM.
